Test results reported in patent US20210070748A1, “INHIBITORS OF BRUTONS TYROSINE KINASE” (Pharmacyclics LLC, priority 2015, published 2021).
pIC50: −log10 of the molar value.

Experiments:
Assay type in all cases: biochemical
JAK3 = biological target: T1, JAK3 (Homo sapiens, UniProt P52333); assay: Inhibition of a panel of kinases, in vitro HotSpot kinase assay: JAK3; conditions: D-compounds panel data; 1 μM ATP; read-out: IC50 JAK3
T1 sequence (P52333 1-1124): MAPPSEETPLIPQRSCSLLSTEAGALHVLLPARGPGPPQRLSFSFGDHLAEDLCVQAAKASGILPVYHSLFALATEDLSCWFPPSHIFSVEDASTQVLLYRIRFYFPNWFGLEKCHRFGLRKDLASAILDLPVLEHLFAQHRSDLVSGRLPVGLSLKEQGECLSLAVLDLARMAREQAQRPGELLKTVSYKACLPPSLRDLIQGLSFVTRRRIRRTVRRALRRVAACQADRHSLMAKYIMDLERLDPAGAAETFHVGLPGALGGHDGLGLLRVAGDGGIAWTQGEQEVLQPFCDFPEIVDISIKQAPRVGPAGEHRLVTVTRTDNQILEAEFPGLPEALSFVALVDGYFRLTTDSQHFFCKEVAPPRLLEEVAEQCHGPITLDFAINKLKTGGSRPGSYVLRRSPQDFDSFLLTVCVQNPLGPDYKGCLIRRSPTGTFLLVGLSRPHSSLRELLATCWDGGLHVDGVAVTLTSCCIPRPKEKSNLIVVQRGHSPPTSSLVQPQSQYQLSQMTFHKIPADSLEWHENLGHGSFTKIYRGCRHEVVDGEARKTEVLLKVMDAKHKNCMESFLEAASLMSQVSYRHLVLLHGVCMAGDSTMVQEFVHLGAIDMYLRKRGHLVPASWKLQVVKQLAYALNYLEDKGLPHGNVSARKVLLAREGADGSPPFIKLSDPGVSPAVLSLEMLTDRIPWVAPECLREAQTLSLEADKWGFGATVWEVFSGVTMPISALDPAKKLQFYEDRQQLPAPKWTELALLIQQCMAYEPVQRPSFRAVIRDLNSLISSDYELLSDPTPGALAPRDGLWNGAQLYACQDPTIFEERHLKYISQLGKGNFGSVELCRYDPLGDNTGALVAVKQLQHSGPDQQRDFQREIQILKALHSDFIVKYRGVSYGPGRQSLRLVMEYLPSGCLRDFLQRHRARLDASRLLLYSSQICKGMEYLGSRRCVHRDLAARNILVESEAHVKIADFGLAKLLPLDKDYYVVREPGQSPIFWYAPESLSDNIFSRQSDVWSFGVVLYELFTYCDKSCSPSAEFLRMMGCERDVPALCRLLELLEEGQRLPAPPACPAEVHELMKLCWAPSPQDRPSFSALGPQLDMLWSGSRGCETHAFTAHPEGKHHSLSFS

EGFR = EGFR (Homo sapiens, UniProt P00533); assay: Inhibition of a panel of kinases, in vitro HotSpot kinase assay: EGFR; conditions: D-compounds panel data; 1 μM ATP
Chain of EGFR (P00533 25-1210): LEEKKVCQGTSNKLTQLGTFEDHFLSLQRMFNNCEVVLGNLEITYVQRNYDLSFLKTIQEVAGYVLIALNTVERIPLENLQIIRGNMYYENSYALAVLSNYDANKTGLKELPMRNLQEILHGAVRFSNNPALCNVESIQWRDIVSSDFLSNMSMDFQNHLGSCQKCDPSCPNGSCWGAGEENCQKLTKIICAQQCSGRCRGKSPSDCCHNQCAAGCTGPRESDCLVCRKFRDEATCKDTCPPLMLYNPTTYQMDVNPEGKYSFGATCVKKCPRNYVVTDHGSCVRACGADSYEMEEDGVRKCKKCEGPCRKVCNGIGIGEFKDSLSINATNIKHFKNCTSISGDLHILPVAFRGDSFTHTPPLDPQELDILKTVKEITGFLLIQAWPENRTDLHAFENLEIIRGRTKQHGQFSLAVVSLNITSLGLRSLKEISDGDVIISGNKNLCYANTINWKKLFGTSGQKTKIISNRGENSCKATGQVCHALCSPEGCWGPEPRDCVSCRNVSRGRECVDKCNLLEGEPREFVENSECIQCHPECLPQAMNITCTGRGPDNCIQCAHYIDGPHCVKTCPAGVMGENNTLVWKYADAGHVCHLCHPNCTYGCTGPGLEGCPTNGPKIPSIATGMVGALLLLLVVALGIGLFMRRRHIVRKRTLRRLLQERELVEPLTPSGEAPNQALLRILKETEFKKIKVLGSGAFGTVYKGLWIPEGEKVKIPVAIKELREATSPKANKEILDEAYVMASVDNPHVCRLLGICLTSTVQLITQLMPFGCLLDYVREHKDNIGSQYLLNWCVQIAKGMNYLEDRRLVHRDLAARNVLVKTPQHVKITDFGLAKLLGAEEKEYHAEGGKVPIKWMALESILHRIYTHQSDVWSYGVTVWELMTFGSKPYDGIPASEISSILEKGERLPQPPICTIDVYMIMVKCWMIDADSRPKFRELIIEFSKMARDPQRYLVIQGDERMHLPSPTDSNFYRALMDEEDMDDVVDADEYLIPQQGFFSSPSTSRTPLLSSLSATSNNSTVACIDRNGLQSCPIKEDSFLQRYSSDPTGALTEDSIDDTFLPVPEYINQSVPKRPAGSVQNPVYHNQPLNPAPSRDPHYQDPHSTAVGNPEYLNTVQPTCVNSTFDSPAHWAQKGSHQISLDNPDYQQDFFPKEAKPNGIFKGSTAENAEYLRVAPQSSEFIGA
Method: (§1) The degree of inhibition of a panel of kinases is determined using the in vitro HotSpot kinase assay (purified enzymes, ^33P-ATP, an appropriate substrate and 1 μM ATP).

SRC = SRC (Homo sapiens, UniProt P12931); assay: Inhibition of a panel of kinases, in vitro HotSpot kinase assay: SRC; conditions: D-compounds panel data; 1 μM ATP
Chain of SRC (P12931 whole entry): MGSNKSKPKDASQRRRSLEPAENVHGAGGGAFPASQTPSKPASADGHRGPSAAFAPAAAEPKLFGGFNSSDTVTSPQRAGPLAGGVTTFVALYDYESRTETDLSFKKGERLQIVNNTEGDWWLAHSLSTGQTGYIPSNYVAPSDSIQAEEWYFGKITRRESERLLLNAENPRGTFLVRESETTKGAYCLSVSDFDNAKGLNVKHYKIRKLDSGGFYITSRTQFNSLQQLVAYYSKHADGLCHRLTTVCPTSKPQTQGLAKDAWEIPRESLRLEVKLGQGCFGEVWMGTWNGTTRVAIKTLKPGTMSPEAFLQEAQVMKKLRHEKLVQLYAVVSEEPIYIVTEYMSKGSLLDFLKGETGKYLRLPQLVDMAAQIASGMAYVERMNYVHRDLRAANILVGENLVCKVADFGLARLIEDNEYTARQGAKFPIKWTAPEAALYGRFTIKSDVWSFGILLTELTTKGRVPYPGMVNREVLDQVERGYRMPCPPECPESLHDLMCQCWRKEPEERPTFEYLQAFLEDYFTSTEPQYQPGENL
Method: as §1

Row | pIC50 (JAK3) | pIC50 (EGFR) | pIC50 (SRC) | SMILES
1 | 5.00 to 6.00 | 5.00 to 6.00 | 7.00 to 8.00 | C[C@@H]1[C@H](NC(=O)c2ccc(C(C)(O)C(F)(F)F)cc2)CCCN1c1cnc(C(N)=O)c(Nc2cnn(C)c2)n1 (single isomer, unassigned) [Example D-213]
2 | 5.00 to 6.00 | 6.00 to 7.00 | 7.00 to 8.00 | C[C@@H]1[C@H](NC(=O)c2ccc(C(C)(O)C(F)(F)F)cc2)CCCN1c1cnc(C(N)=O)c(Nc2cnn(C)c2)n1 (single isomer, unassigned) [Example D-214]
3 | 5.00 to 6.00 | 5.00 to 6.00 | 6.00 to 7.00 | Cn1cc(Nc2nc(N3CC(NC(=O)c4ccc(C5CC5)cc4)CC(F)(F)C3)cnc2C(N)=O)cn1 (stereo in doubt) [Example D-190, 5-[(5S)-5-(4-cyclopropylbenzamido)-3,3-difluoropiperidin-1-yl]-3-[(1-methyl-1H-pyrazol-4-yl)amino]pyrazine-2-carboxamide]
4 | 6.00 to 7.00 | 6.00 to 7.00 | 6.00 to 7.00 | C[C@@H]1[C@H](NC(=O)c2ccc(C3CC3)cc2F)CCCN1c1cnc(C(N)=O)c(Nc2ccc(N3CCN(C)C[C@@H]3C)cc2)n1 [Example D-12, 5-[(2R,3R)-3-(4-cyclopropyl-2-fluorobenzamido)-2-methylpiperidin-1-yl]-3-({4-[(2S)-2,4-dimethylpiperazin-1-yl]phenyl}amino)pyrazine-2-carboxamide]
5 | 5.00 to 6.00 | 5.00 to 6.00 | 6.00 to 7.00 | C[C@@H]1[C@H](NC(=O)c2ccc(C3CC3)cc2F)CCCN1c1cnc(C(N)=O)c(Nc2ccc(N3CCN(C)CC3)nc2)n1 [Example D-13, 5-[(2R,3R)-3-(4-cyclopropyl-2-fluorobenzamido)-2-methylpiperidin-1-yl]-3-{[6-(4-methylpiperazin-1-yl)pyridin-3-yl]amino}pyrazine-2-carboxamide]
6 | 5.00 to 6.00 | 5.00 to 6.00 | 7.00 to 8.00 | C[C@@H]1[C@H](NC(=O)c2ccc(C(C)(C)C)cc2)CCCN1c1cnc(C(N)=O)c(Nc2ccc(N3CCN(C)CC3)cc2)n1 [Example D-14, 5-[(2R,3R)-3-(4-tert-butylbenzamido)-2-methylpiperidin-1-yl]-3-{[4-(4-methylpiperazin-1-yl)phenyl]amino}pyrazine-2-carboxamide]

Row | SMILES | pIC50 (JAK3) | pIC50 (EGFR) | pIC50 (SRC)
7 | Cn1cc(Nc2nc(N3C4CCC(NC(=O)c5ccc(C6CC6)cc5)C3CC4)cnc2C(N)=O)cn1 (single isomer, unassigned) [Example D-199, 5-[2-(4-cyclopropylbenzamido)-8-azabicyclo[3.2.1]octan-8-yl]-3-[(1-methyl-1H-pyrazol-4-yl)amino]pyrazine-2-carboxamide] | 5.00 to 6.00 | < 5.00 | 5.00 to 6.00
8 | Cn1cc(Nc2nc(N3C4CCC(NC(=O)c5ccc(C6CC6)cc5)C3CC4)cnc2C(N)=O)cn1 (single isomer, unassigned) [Example D-200, 5-[2-(4-cyclopropylbenzamido)-8-azabicyclo[32.1]octan-8-yl]-3-[(1-methyl-1H-pyrazol-4-yl)amino]pyrazine-2-carboxamide] | < 5.00 | 5.00 to 6.00 | 5.00 to 6.00
9 | Cn1cc(Nc2nc(N3C4CCC(NC(=O)c5ccc(C6CC6)cc5)C3CC4)cnc2C(N)=O)cn1 (single isomer, unassigned) [Example D-201, 5-[2-(4-cyclopropylbenzamido)-8-azabicyclo[3.2.1]octan-8-yl]-3-[(1-methyl-1H-pyrazol-4-yl)amino]pyrazine-2-carboxamide] | 5.00 to 6.00 | 5.00 to 6.00 | 7.00 to 8.00
10 | Cn1cc(Nc2nc(N3C4CCC(NC(=O)c5ccc(C6CC6)cc5)C3CC4)cnc2C(N)=O)cn1 (single isomer, unassigned) [Example D-202, 5-[2-(4-cyclopropylbenzamido)-8-azabicyclo[3.2. I]octan-8-yl]-3-[(1-methyl-1H-pyrazol-4-yl)amino]pyrazine-2-carboxamide] | < 5.00 | < 5.00 | 6.00 to 7.00
